Experimental data as given in patent US11655254B2, “Substituted piperazines as BTK inhibitors” (HUTCHISON MEDIPHARMA LIMITED, priority 2020, dated 2023).

Assays:
[1] = target: Phosphorylated BTK in Ramos cells (Homo sapiens (Human), UniProt Q06187); assay: Determination of phosphorylated BTK in Ramos cells (BTK phospho-Y223 HTRF); format: cell-based; settings: Ramos cells stimulated with immunoglobulin M 10 μg/mL and hydrogen peroxide 3.3 mM, 10 minutes
Experimental: Ramos cells were starved in PRMI 1640 medium with 1% FBS for 2 hours. The starved Ramos cells were diluted with Hank's balanced salt solution to 5.0×10^6 cells/ml, seeded in a 96-well plate with 20 μL/well (1.0×10^5 cells/well), and cultured in a 5% CO2, 37° C. cell incubator. […]
The 384 well plate incubated overnight in the constant temperature incubator was taken out to detect the luminescence signal using the Envision microwell plate reader at the […]. The reading value at 665 nm/615 nm of each well multiplied by 10^4 was used as the signal value of each well.
The average signal value of the wells supplemented with the mixed solution of human immunoglobulin M (final concentration was 10 μg/mL) and hydrogen peroxide (final concentration was 3.3 mM) without the test compound was regarded as the high value, and the average signal value of the wells without immunoglobulin M stimulation and without the test compound was regarded as the low value. According to the signal value in each well, the inhibition ratio (%) of each concentration of compounds was calculated, and the 205 model in XL-Fit 5.3 software (ID Business Solutions Limited) was used to obtain an IC50 value.
The inhibition ratio is calculated as follows: inhibition ratio (%)=100%−{(treating well for the test compound−negative control treating well)/(control treating well for anti-human immunoglobulin M−negative control treating well)}×100%, wherein, […]

[2] = system: B cell activation in mice whole blood (BTK target); assay: In vivo inhibitory effect on BTK target: anti-IgD antibody-induced B cell activation in mice whole blood after oral dosing; design: species or system mouse; settings: 20 mg/kg oral gavage, single administration, 16 h
From the text: Objects: B cells in mice whole blood were induced and activated by the anti-IgD antibody, and the inhibitory effect of the compound of the present invention on B cell activation in vivo was studied, so as to determine the inhibitory effect of the compound of the present invention on the BTK target in vivo.
Methods: C57BL/6 mice (female, 18-20 g, purchased from Shanghai Lingchang Biotechnology Co., Ltd.) were grouped according to Table 1.
In addition, the blood of mice in the drug-treated group was centrifuged to separate plasma for blood concentration analysis.
Calculation for Inhibition Ratio: Inhibition ratio=(percentage of B cell activation ratio in anti-IgD antibody-induced vehicle group-percentage of B cell activation ratio in drug-treated group)/(percentage of B cell activation ratio in anti-IgD antibody-induced vehicle group-percentage of B cell activation ratio in vehicle control group)×100%
All data are represented by mean±standard error. For the comparison between each drug-treated group and the anti-IgD antibody-induced vehicle group, p value was calculated by Graphpad Prism using one-way ANOVA analysis of variance and Dunnett's test, and for the comparison between each drug-treated group, p value was calculated by using unpaired t test.

[3] = Drug concentration in plasma of mice of the B cell activation study; format: in vivo; settings: C57BL/6, plasma; mouse, 20 mg/kg oral, 16 h after administration
Experimental: The animals of each group were administered, then were placed in CO2 for anesthesia at designated time points, blood samples were taken from […] via retro-orbital bleeding, and heparin was used for anticoagulation; 90 μL of whole blood was taken from mice of each group, and added to a 96 well culture plate, and anti-mouse IgD antibody (BIO-RAD, Cat #MCA4693) was added to each well to a final concentration of 0.01 μg/μL (respectively for each drug-treated group and anti-IgD antibody-inducted vehicle group); in addition, 90 μL of whole blood of mice in the vehicle group was taken and added to the 96-well culture plate, and PBS (phosphate buffer, GIBCO, Cat # C20012500BT) was added to each well to a final concentration of 0.01 μg/μL (namely, the vehicle control group); Each group was mixed well and incubated in a 37° C./5% CO2 incubator for 4 hours. In addition, the blood of mice in the drug-treated group was centrifuged to separate plasma for blood concentration analysis.

[4] = Stability test in liver microsomes (rat); format: in vitro ADME; settings: rat liver microsomes 0.5 mg/mL, compound 1 μM, 37° C.
Experimental: The test compound stock solution was diluted with an organic solvent (usually a mixture of acetonitrile, methanol and water with various ratios, depending on the solubility of the compound, if necessary, 1 N hydrochloric acid or 1 N sodium hydroxide would be added to facilitate solubilization) to the 0.1 mM (the final concentration of the compound in the reaction system was 1 μM) and the concentration percentage of the organic solvents in the incubation system no more than 1% (wherein the percentage of DMSO was required to be no more than 0.1%). An appropriate amount of 100 mM NADP, 500 mM G-6-P and 100 Unit/mL G-6-PDH were mixed and diluted with ultrapure water (the final system contains 1 mM NADP, 5 mM G-6-P and 1 Unit/mL G-6-PDH), pre-incubated in a 37° C. water bath for 10 minutes and then placed on ice for use as a NADPH regeneration solution. 20 mg/mL liver microsomes solution and 200 mM phosphate buffer were mixed, and diluted with ultrapure water to give a liver microsomes solution containing 2.5 mg/mL liver microsomes (the final concentration of the reaction system is 0.5 mg/mL) and 50 mM phosphate buffer. […]
The percentage of the remaining compound after 30 minutes of incubation comparing with that in the 0-minute sample was calculated using the peak area ratio of the compound to the internal standard as an indicator, to evaluate the metabolic stability of the compound.

[5] = system: CIA (collagen induced arthritis) rats; assay: Rat arthritis model induced by type II collagen (CIA); format: in vivo; settings: compared with vehicle control group
Experimental: An appropriate amount of bovine type II collagen (CII, Chondrex (Redmond, Wash., USA), Cat #20021) was weighed and dissolved in 0.1 mole of acetic acid (SPGC Sinopharm Chemical Reagent Co., Ltd (Shanghai, P.R. China), Cat #: 10000218.), which was formulated into a solution with a concentration of 6 mg/mL, stirred at 4° C. overnight, and added with an equal volume of Freund's incomplete adjuvant (Sigma-Aldrich.(St. Louis, Mo., USA), Cat #: SLBW0366.), fully emulsified to prepare an emulsion with a CII concentration of 3 mg/mL.
Female Lewis rats were purchased from Beijing Vital River Laboratory Animal Technology Co., Ltd. (certificate number 20200928Aazz0619000579, initial body weight of 110-130 grams), and 6 rats were randomly selected as a normal group; and all of the remaining rats were immunized. In the first immunization on day 0, the rats except those in the normal group were anesthetized with isoflurane (Hebei Yipin Pharmaceutical Co., Ltd., Lot: C002170601.), and then disinfected with 75% alcohol, and 0.2 mL of emulsion was injected intradermally at the base of the tail thereof. A second challenge was carried out on day 7, and 0.2 mL of emulsion was intradermally injected using the same method. Once the animals developed symptoms on day 10, the incidence conditions thereof were closely monitored.
After grouping, the normal group was not administered, and the rats in the other groups were administered with the control vehicle, 0.25 mg/kg and 4 mg/kg of the reference GDC-0853, and each dose of compound 1 orally once a day until the end of the experiment.
The paw volume was measured on day 10 after immunization, and the left and right hind paw volumes (V) were measured every day after the paw volume increase was detected.
The arthrosis paw volumes of the left and right hind limbs of each animal were measured, and the average paw volume (APV) was calculated according to the following formula: Average paw volume APV=(Vleft+Vright)/2
The average arthrosis paw volume of each animal before administration was used as the baseline (or considered 100% inhibition of inflammation). […]
The area under the curve (AUC) of the average paw volume swelling is the area under the curve of the arthrosis score swelling calculated by the trapezoid method, and the calculation formula is: AUCAPS=1/2×(APSd1+APSd2)×(d2−d1)+1/2×(APSd2+APSd3)×(d3−d2)+ . . . +1/2×(APSdn+APSd(n-1))×(dn−dn-1). […]
ED50 is calculated by XLfit software according to the AUC inhibition ratio of the area under the curve of the average paw volume swelling. […]

Phosphorylated BTK in Ramos cells, sequence (Q06187 whole entry): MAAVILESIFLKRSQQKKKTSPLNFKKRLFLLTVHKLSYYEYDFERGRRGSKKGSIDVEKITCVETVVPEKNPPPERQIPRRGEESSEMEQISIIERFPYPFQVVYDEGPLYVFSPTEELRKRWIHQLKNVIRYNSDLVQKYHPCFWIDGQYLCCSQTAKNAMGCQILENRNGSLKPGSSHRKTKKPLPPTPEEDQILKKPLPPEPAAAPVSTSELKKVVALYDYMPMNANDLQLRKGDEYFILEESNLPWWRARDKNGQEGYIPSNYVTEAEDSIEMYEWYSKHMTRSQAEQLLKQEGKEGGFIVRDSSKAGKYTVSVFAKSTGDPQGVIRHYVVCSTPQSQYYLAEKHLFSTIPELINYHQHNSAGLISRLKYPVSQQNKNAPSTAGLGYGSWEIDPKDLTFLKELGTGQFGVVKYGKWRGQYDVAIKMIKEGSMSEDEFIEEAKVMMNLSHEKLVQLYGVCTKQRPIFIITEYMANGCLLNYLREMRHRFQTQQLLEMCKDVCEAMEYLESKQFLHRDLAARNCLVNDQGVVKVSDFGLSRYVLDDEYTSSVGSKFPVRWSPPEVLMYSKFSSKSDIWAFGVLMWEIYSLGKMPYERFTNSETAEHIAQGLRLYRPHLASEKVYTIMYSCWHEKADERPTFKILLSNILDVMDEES

Structure (SMILES)	IC50 [1] [nM]	Inhibition ratio (%) on B cell activation [2] [%]	Inhibition ratio (%) on B cell activation ([2]; listed as compound 2) [%]	concentration at 16 h [3] [ng/mL]	RLM, percentage of the remaining compound after 30 minutes of incubation [4] [%]	effect on paw volume ([5]; 0.25 mg/kg oral QD)	effect on paw volume ([5]; 4 mg/kg oral QD)
C[C@@H]1CN(C2COC2)C[C@H](C)N1c1ccc(Nc2cc(-c3ccnc(-n4ccn5c6c(cc5c4=O)CC(C)(C)C6)c3CO)cn(C)c2=O)nc1 [Compound 2]	6	43	43	6.6 ± 2.51			
C[C@H]1CN(C2COC2)C[C@H](C)N1c1ccc(Nc2cc(-c3ccnc(-n4ncn5c6c(cc5c4=O)CC(C)(C)C6)c3CO)cn(C)c2=O)nc1 [Compound 4, 2-(5-((5-((2S,6S)-2,6-dimethyl-4-(oxetan-3-yl)piperazin-1-yl)pyridin-2-yl)amino)-3′-(hydroxymethyl)-1-methyl-6-oxo-1,6-dihydro-[3,4′-bipyridin]-2′-yl)-7,7-dimethyl-7,8-dihydro-2H-cyclopenta[4,5]pyrrolo[1,2-d][1,2,4]triazin-1(6H)-one]	3						
C[C@H]1CN(C2COC2)CCN1c1ccc(Nc2cc(-c3ccnc(N4CCn5c(cc6c5CC(C)(C)C6)C4=O)c3CO)cn(C)c2=O)nc1 [GDC-0853, fenebrutinib, reference compound]				5.01 ± 2.26	81.0	no improvement effect	significantly reduced
